Assay results: patent publication US10231992B2, “Antioxidant composition” (priority 2010, dated 2019)

What was measured:
[1] = test system: human fibroblasts; test: MTT cytotoxicity and proliferation assay, limit concentrations of NAC and turmeric; format: cell-based
Method: The proliferation assay was carried out using the MTT colorimetric assay (Roche 11465007001). MTT is a yellow tetrazolium salt which forms formazan crystals in active cells. The formazan crystals are solubilized and the resulting color is quantified by means of spectrophotometry at 550 nm. […] The cells were maintained at 37° C. in an incubation stove. The following day, the treatments of NAC and Turmeric were added to the cell culture using a volume of 200 μL per well. The cell culture was left to incubate for 24, 48 and 72 hours. After each incubation time, 20 μL of MTT (a final concentration of 0.5 mg/mL) were added to each well. The plate was maintained for 4 hours in the incubation stove in order to allow the formation of formazan crystals. Subsequently, 100 μL of solubilizer was added to each well and the plate was left in the incubation stove until the following day.

[2] = test system: reactive oxygen metabolites (ROMs) in human fibroblasts; test: Intracellular ROM quantification with 2',7'-dichlorofluorescein diacetate probe in oxidized fibroblasts; format: cell-based; conditions: 1 mM H2O2; for F.U. (fluorescence units) / % decrease of ROS: 1% LBG, 5 mM NAC, 5 μM Turmeric; for F.U. (fluorescence units): fluorescence at 538 nm, 20 minutes after the start of the oxidation; for % decrease of ROS: with respect to the oxidized control
Method: To quantify the ROM-decreasing or antioxidant capacity of LBG, NAC and turmeric, the production of the ROMs generated upon oxidizing a culture of fibroblasts with a high concentration of hydrogen peroxide was measured.
The intracellular ROMs were quantified by means of the labeling thereof with the fluorescent probe 2′,7′-dichlorofluorescein diacetate (Molecular Probes D399). This probe is capable of emitting fluorescence at 538 nm when it is oxidized with reactive oxygen metabolites. The cell oxidation was carried out with 1 mM hydrogen peroxide.
The day before the assay, the fibroblasts were seeded in a 96-well plate at a density of 11500 cells per well. All the assays were performed in triplicate.
The treatments were prepared on the day of the experiment and the hydrogen peroxide was added just before the assay.
A solution of locust bean gum of 1% in distilled water was prepared and heated above 100° C. until completing dissolution of the gum.
The solution was then centrifuged for 20 minutes at 4000 rpm to remove the impurities from the mixture. The solution of the locust bean gum was lyophilized. The lyophilisate was dissolved in cell growth medium (DMEM+10% FBS) at a concentration of 1%.
Before adding the treatments and the hydrogen peroxide, the cells were labeled with the fluorescent probe at a concentration of 50 μM for 30 minutes in darkness.
The NAC and Turmeric treatments and the hydrogen peroxide were prepared just before starting the assay. To prepare the turmeric stock, it is necessary to know the purity of the Turmeric batch available and readjust the calculation to add the necessary concentration.
After labeling the cells, the antioxidant treatments and the hydrogen peroxide were added.
The fluorescence emitted at 538 nm by the probe was collected 20 minutes after the start of the oxidation.
However, in this case the decrease in intracellular ROM levels was taken as a reference with respect to the oxidized control.

| SMILES | IC50 (concentration causing a 50% cell decrease with respect to the control) ([1]; NAC studied from 0.5 mM to 20 mM, 72 hours) | proliferative rate in the fibroblasts ([1]; concentrations of 1 and 5 mM) | cell proliferation with respect to the control ([1]; concentrations of 10 and 20 mM) | maximum limit of concentration ([1]; toxicity limit from MTT assay) [mM] | intracellular ROM levels [2] | F.U. (fluorescence units) [2] | % decrease of ROS [2] [%] | IC50 ([1]; Homo sapiens, Fibroblast, 72 h, read-out: IC50 (concentration causing a 50% cell decrease with respect to the control)) [µM] | toxicity ([1]; concentration of 10 μM) | toxicity ([1]; concentrations of 1 and 5 μM) | toxicity ([1]; concentrations of 20 and 50 μM) | maximum limit of use in the mixture ([1]; toxicity limit from MTT assay) [µM] |
| --- | --- | --- | --- | --- | --- | --- | --- | --- | --- | --- | --- | --- |
| CC(=O)N[C@@H](CS)C(=O)O [NAC, N-acetyl cysteine, reference compound] | none of the concentrations studied reached IC50 | improvement of the proliferative rate | progressively reduced cell proliferation | 10 | significant decrease of the intracellular ROM levels | 1.82 | 85 | – | – | – | – | – |
| COc1cc(/C=C/C(=O)/C=C(O)/C=C/c2ccc(O)c(OC)c2)ccc1O [Turmeric, curcumin] | – | – | – | – | significant decrease of the intracellular ROM levels | 2.31 | 81 | 7.5 | exceeds the limit at 72 hours | no toxic effects were observed | toxicity from the first 24 hours, exceeding the IC50 limit | 7.5 |
